Converted amounts (≈) assume the structure as drawn. Read-outs that look alike come from different tables or passages of the source.
Experiments:
[1] = Reverse-phase HPLC retention time as estimate of lipophilicity; type: physicochemical; details: indicator of lipophilicity
Outline: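 Retention time on a reverse-phase HPLC column served as a relative lipophilicity estimate across structurally related albicidin derivatives.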

[2] = system: E. coli BW25113; experiment: MIC determination (broth microdilution); type: cell-based
Outline: (§1)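 Overnight LB cultures were adjusted to 0.5 McFarland and diluted to about 1x10^6 CFU mL-1 in cation-adjusted MHB II. Compounds, serially diluted in 100% DMSO, were then added to give 128 to 0.016 μg/mL. After 16 h at 30−37°C, wells were scored by eye.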

[3] = system: Mycobacterium phlei DSM 750; experiment: MIC determination (broth microdilution); type: cell-based; details: Mycolicibacterium phlei, DSM750; read-out: MIC M. phlei
Outline: as §1

[4] = system: Micrococcus luteus DSM 1790; experiment: MIC determination (broth microdilution); type: cell-based; details: DSM1790, read-out: MIC M. luteus
Outline: as §1

[5] = system: Bacillus subtilis DSM 10; experiment: MIC determination (broth microdilution); type: cell-based; details: DSM10, read-out: MIC B. sub.
Outline: as §1

[6] = system: E. coli DSM1116; experiment: MIC determination (broth microdilution); type: cell-based
Outline: as §1

[7] = target: E. coli DNA gyrase (Escherichia coli, UniProt P0AES4); experiment: E. coli gyrase DNA cleavage assay; type: biochemical; set-up: key to Gyrase inhibition strong+ / weak −: + strong inhibition; − weak inhibition in comparison to compound 16; details: qualitative DNA cleavage assay at 1 μM and 10 μM, in comparison to compound 16
Outline: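 Relaxed pBR322 incubated with wild-type E. coli gyrase (50 nM stock for pre-screening, 40 nM stock for IC50 runs) and compound in buffer with 1 mM ATP, 2% DMSO, 30 min at 37 °C; cleavage complexes trapped with SDS/proteinase K. Linearized DNA as percentage of total by ethidium-stained agarose gel; four-parameter fit.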

Chain of E. coli DNA gyrase (P0AES4 whole entry): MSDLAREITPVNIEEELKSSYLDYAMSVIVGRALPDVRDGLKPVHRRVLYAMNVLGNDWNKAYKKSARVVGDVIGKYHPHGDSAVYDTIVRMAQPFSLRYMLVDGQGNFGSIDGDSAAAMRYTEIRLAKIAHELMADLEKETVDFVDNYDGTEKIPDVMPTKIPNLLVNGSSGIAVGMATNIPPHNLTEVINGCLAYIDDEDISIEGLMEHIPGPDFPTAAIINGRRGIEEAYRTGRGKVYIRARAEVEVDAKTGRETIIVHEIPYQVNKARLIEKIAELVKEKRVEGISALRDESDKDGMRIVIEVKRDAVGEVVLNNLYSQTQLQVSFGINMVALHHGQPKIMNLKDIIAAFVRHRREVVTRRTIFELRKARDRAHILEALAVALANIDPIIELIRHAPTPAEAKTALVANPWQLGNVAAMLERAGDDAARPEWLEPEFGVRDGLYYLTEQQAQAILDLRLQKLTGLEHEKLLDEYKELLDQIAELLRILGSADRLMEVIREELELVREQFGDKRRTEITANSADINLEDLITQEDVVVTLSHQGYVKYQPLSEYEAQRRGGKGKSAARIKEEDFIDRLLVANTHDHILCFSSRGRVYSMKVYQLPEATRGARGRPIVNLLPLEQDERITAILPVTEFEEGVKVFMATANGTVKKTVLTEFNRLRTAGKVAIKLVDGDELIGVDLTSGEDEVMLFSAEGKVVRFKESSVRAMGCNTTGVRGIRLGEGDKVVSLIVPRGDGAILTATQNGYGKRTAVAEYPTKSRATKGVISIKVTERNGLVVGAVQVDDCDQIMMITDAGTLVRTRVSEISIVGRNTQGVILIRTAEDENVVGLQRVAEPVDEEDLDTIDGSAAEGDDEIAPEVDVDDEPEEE

SMILES | Rt (retention time) [1] | MIC ([2]; Escherichia coli, BW25113, read-out: MIC E. coli BW25113) | MIC [3] | MIC [4] | MIC [5] | MIC ([6]; Escherichia coli, DSM1116, read-out: MIC E. coli DSM1116) | Gyrase inhibition strong+ / weak − [7] | MIC ([2]; Escherichia coli, BW25113; read-out: MIC E. coli BW25113) | MIC ([6]; Escherichia coli, DSM1116; read-out: MIC E. coli DSM1116)
COc1c(NC(=O)c2ccc(NC(=O)c3ccc(NC(=O)[C@H](Cc4c[nH]nn4)NC(=O)c4ccc(NC(=O)c5ccc6nc[nH]c6c5)cc4)cn3)c(OC)c2O)ccc(C(=O)O)c1O [compound 23] | 6.69 min | 0.125 µg/mL (≈ 0.144 µM) | 8 µg/mL (≈ 9.2 µM) | 2 µg/mL (≈ 2.3 µM) | 2 µg/mL (≈ 2.3 µM) | 0.125 µg/mL (≈ 0.144 µM) | + |  | 
COc1c(NC(=O)c2ccc(NC(=O)c3ccc(NC(=O)[C@H](Cc4c[nH]nn4)NC(=O)c4ccc(NC(=O)c5ccc6nn[nH]c6c5)cc4)cn3)c(OC)c2O)ccc(C(=O)O)c1O [compound 24] | 7.16 min |  | 8 µg/mL (≈ 9.19 µM) | 0.5 µg/mL (≈ 0.574 µM) | 0.5 µg/mL (≈ 0.574 µM) |  | + | 0.125 µg/mL (≈ 0.144 µM) | 0.125 µg/mL (≈ 0.144 µM)

Source: article PMC11979685, “Synthesis of Derivatives of the Antibiotic Albicidin: The N‐Terminal Fragment as Key to Control Potency and Resistance Mediated by the Binding Protein AlbA” (Chemistry (Weinheim an Der Bergstrasse, Germany), 2025)
